According to patent US8067243B2 (priority 2008, dated 2011):
Like-named read-outs stand apart in the source and are kept apart here.

How the values were obtained:
[1] = drug screen, cited from earlier work
[2] = human, in vivo
[3] = in vivo, cited from earlier work
[4] = in vivo; cited from earlier work

CCC1(CCC(C)C)C(=O)NC(=O)NC1=O [Amobarbital]
Retention Time [1]: 1 to 7 days

CC(N)Cc1ccccc1 (centres unmarked) [Amphetamine]
Retention Time [1]: 1 to 2 days

C=CCC1(C(C)C)C(=O)NC(=O)NC1=O [Aprobarbital]
Retention Time [1]: 1 to 7 days

CCC(C)C1(CC)C(=O)NC(=O)NC1=O (centres unmarked) [Butabarbital]
Retention Time [1]: 1 to 7 days

C=CCC1(CC(C)C)C(=O)NC(=O)NC1=O [Butalbital]
Retention Time [1]: 0.042 to 2 days

CN1[C@H]2CC[C@@H]1[C@@H](C(=O)O)[C@@H](OC(=O)c1ccccc1)C2 [Cocaine metabolite]
Retention Time [1]: 1 to 2 days

COc1ccc2c3c1O[C@H]1[C@@H](O)C=C[C@H]4[C@@H](C2)N(C)CC[C@@]341 [Codeine]
Result (urine concentration) [2]: 327 ng/mL | time to peak plasma concentration ([3]; po): one

CCO [Ethanol]
Retention Time [1]: 0.083 to 0.583 days

COc1ccc2c3c1O[C@H]1C(=O)CC[C@H]4[C@@H](C2)N(C)CC[C@]314 [Hydrocodone]
Result (urine concentration) [2]: 864 ng/mL | Retention Time [4]: 1 to 3 days | detection of free drug in urine by LC/MS/MS after administration [4]: 3 days

CCOC(=O)C1(c2ccccc2)CCN(C)CC1 [Meperidine]
Retention Time [4]: 1 to 2 days | plasma half-life [3]: 3 h

CN1CC[C@]23c4c5ccc(O)c4O[C@H]2[C@@H](O)C=C[C@H]3[C@H]1C5 [Morphine]
Result (urine concentration) [2]: 104 ng/mL | dose excreted in urine as morphine-3-glucuronide [3]: 70%

CCOC(=O)C1(c2ccccc2)CCNCC1 [Normeperidine]
plasma half-life [3]: 20 h

COc1ccc2c3c1O[C@H]1C(=O)CC[C@@]4(O)[C@@H](C2)N(C)CC[C@]314 [Oxycodone]
Result (urine concentration) [2]: 544 ng/mL | Retention Time [4]: 1 to 3 days | Retention Time (SR) [4]: (SR 2-4 days) | detection of free drug in urine by LC/MS/MS after administration [4]: up to 3 days | detection of free drug in urine by LC/MS/MS after slow-release dosage form [4]: up to 4 days | oral dose eliminated in urine as oxymorphone ([3]; po): about 14% | oral dose eliminated in urine as total oxycodone ([3]; po): approximately 60%

CN1CC[C@]23c4c5ccc(O)c4O[C@H]2C(=O)CC[C@@]3(O)[C@H]1C5 [Oxymorphone]
Result (urine concentration) [2]: 223 ng/mL | Retention Time [4]: 1 to 3 days | Retention Time (SR) [4]: (SR 2-4 days) | detection of free drug in urine by LC/MS/MS after administration [4]: up to 3 days | detection of free drug in urine by LC/MS/MS after slow-release dosage form [4]: up to 4 days | dose excreted in urine [3]: About 49%

CCCC(C)C1(CC)C(=O)NC(=O)NC1=O (centres unmarked) [Pentobarbital]
Retention Time [1]: 0.042 to 1 days

c1ccc(C2(N3CCCCC3)CCCCC2)cc1 [Phencyclidine]
Retention Time, Chronic Use ([1]; chronic use): up to 30 days | Retention Time [1]: 8 days

C=CCC1(C(C)CCC)C(=O)NC(=O)NC1=O (centres unmarked) [Secobarbital]
Retention Time [1]: 0.042 to 1 days

CC(=O)Oc1ccc2c3c1O[C@H]1[C@@H](OC(C)=O)C=C[C@H]4[C@@H](C2)N(C)CC[C@@]341 [heroin, diacetyl morphine]
heroin dose excreted as morphine-3-glucuronide [3]: Approximately 42%
